# According to ChEMBL document CHEMBL5375967 (J Med Chem, 2023):
# Target: T1, Leukotriene A-4 hydrolase (Homo sapiens, UniProt P09960)
# T1 sequence (P09960 whole entry): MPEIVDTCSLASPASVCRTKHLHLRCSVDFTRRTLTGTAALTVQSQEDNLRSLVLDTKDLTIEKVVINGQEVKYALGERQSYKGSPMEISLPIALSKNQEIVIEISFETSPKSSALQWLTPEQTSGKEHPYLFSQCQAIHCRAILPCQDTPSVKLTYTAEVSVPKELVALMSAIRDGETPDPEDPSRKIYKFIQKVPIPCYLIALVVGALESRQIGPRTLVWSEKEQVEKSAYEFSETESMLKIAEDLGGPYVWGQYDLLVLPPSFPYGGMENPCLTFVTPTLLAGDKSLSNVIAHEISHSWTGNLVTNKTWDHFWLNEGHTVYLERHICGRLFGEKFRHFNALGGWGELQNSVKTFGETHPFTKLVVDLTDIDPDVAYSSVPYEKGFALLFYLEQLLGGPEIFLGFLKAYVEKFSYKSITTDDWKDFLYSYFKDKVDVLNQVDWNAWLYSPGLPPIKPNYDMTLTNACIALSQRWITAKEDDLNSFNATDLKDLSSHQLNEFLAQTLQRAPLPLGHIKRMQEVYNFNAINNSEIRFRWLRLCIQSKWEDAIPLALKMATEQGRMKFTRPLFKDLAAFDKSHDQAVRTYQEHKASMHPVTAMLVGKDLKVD
# Test: Inhibition of LTA4H (unknown origin)
# Settings: not given
row,Compound,IC50 [µM]
1,O=C(O)c1ccc(CN2C[C@@H]3C[C@H]2CN3Cc2ccc(Oc3ccc(-c4ncco4)cc3)cc2)cc1 [ACEBILUSTAT],0.003
2,CC(=O)N[C@H]1C[C@H]2CC[C@@H](C1)N2Cc1ccc(Oc2nc3ncccc3s2)cc1,0.003

# Target: T1, Leukotriene A-4 hydrolase
# Test: Inhibition of LTA4H in human blood assessed as LTB4 production
# Type: tissue-based
# Settings: not given
row,Compound,IC50 [µM]
1,O=C(O)c1ccc(CN2C[C@@H]3C[C@H]2CN3Cc2ccc(Oc3ccc(-c4ncco4)cc3)cc2)cc1 [ACEBILUSTAT],0.135
2,CC(=O)N[C@H]1C[C@H]2CC[C@@H](C1)N2Cc1ccc(Oc2nc3ncccc3s2)cc1,0.042

# System: not listed separately
# Test: Inhibition of calcium ionophore A23187-stimulated LTB4 release in C57BL/6 mouse model at 10 mg/kg, po bid measured after 2 hrs
# Type: functional
# Settings: not given
row,Compound,inhibition in vivo at 10 mg/kg [%]
1,N[C@@H](CC(=O)O)Cn1nnc(-c2ccc(Oc3ncc(Cl)cc3F)cc2)n1,97

# Target: T2, Voltage-gated inwardly rectifying potassium channel KCNH2 (Homo sapiens, UniProt Q12809)
# T2 sequence (Q12809 whole entry): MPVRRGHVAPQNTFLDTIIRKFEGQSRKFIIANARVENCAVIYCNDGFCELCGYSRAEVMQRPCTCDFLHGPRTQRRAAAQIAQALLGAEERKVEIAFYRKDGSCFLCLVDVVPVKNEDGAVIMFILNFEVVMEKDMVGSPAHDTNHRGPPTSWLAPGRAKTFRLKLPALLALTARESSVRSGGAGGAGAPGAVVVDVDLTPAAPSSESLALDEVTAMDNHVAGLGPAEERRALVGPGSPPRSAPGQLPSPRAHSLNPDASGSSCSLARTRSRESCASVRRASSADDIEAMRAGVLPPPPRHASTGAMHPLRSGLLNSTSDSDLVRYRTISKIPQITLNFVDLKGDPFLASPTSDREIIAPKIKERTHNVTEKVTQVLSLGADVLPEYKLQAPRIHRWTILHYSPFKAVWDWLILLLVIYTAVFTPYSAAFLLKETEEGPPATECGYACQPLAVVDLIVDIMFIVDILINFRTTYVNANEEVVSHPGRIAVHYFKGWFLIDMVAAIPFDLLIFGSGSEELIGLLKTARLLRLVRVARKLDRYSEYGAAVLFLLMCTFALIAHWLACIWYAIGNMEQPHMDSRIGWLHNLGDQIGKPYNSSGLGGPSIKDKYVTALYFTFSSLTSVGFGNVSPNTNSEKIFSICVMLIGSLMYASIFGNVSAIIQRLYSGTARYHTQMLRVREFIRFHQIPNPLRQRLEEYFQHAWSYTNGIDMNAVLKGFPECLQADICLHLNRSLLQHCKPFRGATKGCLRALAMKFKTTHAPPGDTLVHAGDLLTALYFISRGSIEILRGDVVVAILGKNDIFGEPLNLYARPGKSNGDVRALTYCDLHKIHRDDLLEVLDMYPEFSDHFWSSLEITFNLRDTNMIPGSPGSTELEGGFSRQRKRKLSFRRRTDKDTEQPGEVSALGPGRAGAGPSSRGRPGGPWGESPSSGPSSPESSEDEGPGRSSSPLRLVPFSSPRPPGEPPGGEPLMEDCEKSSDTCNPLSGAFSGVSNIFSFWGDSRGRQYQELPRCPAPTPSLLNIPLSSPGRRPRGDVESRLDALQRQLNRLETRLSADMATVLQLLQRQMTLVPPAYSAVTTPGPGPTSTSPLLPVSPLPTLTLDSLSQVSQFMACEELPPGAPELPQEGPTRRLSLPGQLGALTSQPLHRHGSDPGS
# Test: not given
# Settings: not given
row,Compound,IC50 [µM]
1,Cc1ccc(Oc2ccc(-c3nnn(CCN)n3)cc2)cc1,6
2,N[C@H](CO)Cn1nnc(-c2ccc(Oc3ncc(Cl)cc3F)cc2)n1,> 30
3,N[C@H](CO)Cc1nc(-c2ccc(Oc3ccc(-c4cc[nH]n4)cn3)cc2)no1,> 30
4,N[C@H](CCO)Cn1nnc(-c2ccc(Oc3ncc(Cl)cc3F)cc2)n1,> 30
5,N[C@@H](CO)Cn1nnc(-c2ccc(Oc3ncc(Cl)cc3F)cc2)n1,> 30

# Target: T2, Voltage-gated inwardly rectifying potassium channel KCNH2
# Test: not given
# Settings: not given
# Remark: another data set of the same source
row,Compound,IC50 [µM]
1,N[C@H](CO)Cn1nnc(-c2ccc(Oc3ncc(Cl)cc3F)cc2)n1,30
2,N[C@H](CO)Cc1nc(-c2ccc(Oc3ccc(-c4cc[nH]n4)cn3)cc2)no1,> 30
3,N[C@@H](CO)Cn1nnc(-c2ccc(Oc3ncc(Cl)cc3F)cc2)n1,> 30

# Target: T2, Voltage-gated inwardly rectifying potassium channel KCNH2
# Test: not given
# Settings: not given
# Remark: another data set of the same source
row,Compound,IC50 [µM]
1,N[C@H](CO)Cn1nnc(-c2ccc(Oc3ncc(Cl)cc3F)cc2)n1,28
2,N[C@H](CO)Cc1nc(-c2ccc(Oc3ccc(-c4cc[nH]n4)cn3)cc2)no1,> 100

# System: not listed separately
# Test: in vivo
# Settings: Sprague-Dawley, rat, iv, 1 mg/kg
row,Compound,clearance [mL/min/kg]
1,N[C@H](CO)Cn1nnc(-c2ccc(Oc3ncc(Cl)cc3F)cc2)n1,9
2,N[C@H](CO)Cc1nc(-c2ccc(Oc3ccc(-c4cc[nH]n4)cn3)cc2)no1,16
3,N[C@@H](CO)Cn1nnc(-c2ccc(Oc3ncc(Cl)cc3F)cc2)n1,134

# System: not listed separately
# Test: in vivo
# Settings: Sprague-Dawley, rat, iv, 1 mg/kg
# Remark: another data set of the same source
row,Compound,Vd [L/kg]
1,N[C@H](CO)Cn1nnc(-c2ccc(Oc3ncc(Cl)cc3F)cc2)n1,3
2,N[C@H](CO)Cc1nc(-c2ccc(Oc3ccc(-c4cc[nH]n4)cn3)cc2)no1,21
3,N[C@@H](CO)Cn1nnc(-c2ccc(Oc3ncc(Cl)cc3F)cc2)n1,36

# System: not listed separately
# Test: in vivo
# Settings: Sprague-Dawley, rat, iv, 1 mg/kg
# Remark: another data set of the same source
row,Compound,MRT [h]
1,N[C@H](CO)Cn1nnc(-c2ccc(Oc3ncc(Cl)cc3F)cc2)n1,5.3
2,N[C@H](CO)Cc1nc(-c2ccc(Oc3ccc(-c4cc[nH]n4)cn3)cc2)no1,23
3,N[C@@H](CO)Cn1nnc(-c2ccc(Oc3ncc(Cl)cc3F)cc2)n1,4.5

# System: not listed separately
# Test: in vivo
# Settings: Sprague-Dawley, rat, po, 3 mg/kg
row,Compound,AUC(0-inf) [µM·h]
1,N[C@H](CO)Cn1nnc(-c2ccc(Oc3ncc(Cl)cc3F)cc2)n1,14.7
2,N[C@H](CO)Cc1nc(-c2ccc(Oc3ccc(-c4cc[nH]n4)cn3)cc2)no1,4.2
3,N[C@@H](CO)Cn1nnc(-c2ccc(Oc3ncc(Cl)cc3F)cc2)n1,0.369

# System: not listed separately
# Test: in vivo
# Settings: Sprague-Dawley, rat, iv, 1 mg/kg
# Remark: another data set of the same source
row,Compound,bioavailability [%]
1,N[C@H](CO)Cn1nnc(-c2ccc(Oc3ncc(Cl)cc3F)cc2)n1,100
2,N[C@H](CO)Cc1nc(-c2ccc(Oc3ccc(-c4cc[nH]n4)cn3)cc2)no1,49
3,N[C@@H](CO)Cn1nnc(-c2ccc(Oc3ncc(Cl)cc3F)cc2)n1,37

# System: not listed separately
# Test: in vivo
# Settings: Sprague-Dawley, rat, iv, 1 mg/kg
# Remark: another data set of the same source
row,Compound,Cmax [nM]
1,N[C@H](CO)Cn1nnc(-c2ccc(Oc3ncc(Cl)cc3F)cc2)n1,1300
2,N[C@H](CO)Cc1nc(-c2ccc(Oc3ccc(-c4cc[nH]n4)cn3)cc2)no1,403
3,N[C@@H](CO)Cn1nnc(-c2ccc(Oc3ncc(Cl)cc3F)cc2)n1,42

# System: not listed separately
# Test: in vivo
# Settings: Sprague-Dawley, rat, iv, 1 mg/kg
# Remark: another data set of the same source
row,Compound,concentration at 24 h [nM]
1,N[C@H](CO)Cn1nnc(-c2ccc(Oc3ncc(Cl)cc3F)cc2)n1,52
2,N[C@H](CO)Cc1nc(-c2ccc(Oc3ccc(-c4cc[nH]n4)cn3)cc2)no1,23
3,N[C@@H](CO)Cn1nnc(-c2ccc(Oc3ncc(Cl)cc3F)cc2)n1,2

# System: not listed separately
# Test: in vivo
# Settings: C57BL/6, mouse, blood, po, 10 mg/kg
row,Compound,concentration at 2 h [nM]
1,N[C@H](CO)Cn1nnc(-c2ccc(Oc3ncc(Cl)cc3F)cc2)n1,2980
2,N[C@H](CO)Cc1nc(-c2ccc(Oc3ccc(-c4cc[nH]n4)cn3)cc2)no1,800

# Same assay, conditions: C57BL/6, mouse, in vivo, po, 10 mg/kg
row,Compound,concentration at 2 h [nM]
1,N[C@@H](CC(=O)O)Cn1nnc(-c2ccc(Oc3ncc(Cl)cc3F)cc2)n1,1290

# System: not listed separately
# Test: in vivo
# Settings: C57BL/6, mouse, blood, po, 10 mg/kg
# Remark: another data set of the same source
row,Compound,concentration at 24 h [nM]
1,N[C@H](CO)Cn1nnc(-c2ccc(Oc3ncc(Cl)cc3F)cc2)n1,134
2,N[C@H](CO)Cc1nc(-c2ccc(Oc3ccc(-c4cc[nH]n4)cn3)cc2)no1,116

# Same assay, conditions: C57BL/6, mouse, in vivo, po, 10 mg/kg
row,Compound,concentration at 24 h [nM]
1,N[C@@H](CC(=O)O)Cn1nnc(-c2ccc(Oc3ncc(Cl)cc3F)cc2)n1,184

# System: not listed separately
# Test: physchem
# Settings: octanol/water, pH 7.4
row,Compound,logD
1,Cc1ccc(Oc2ccc(-c3nnn(CCN)n3)cc2)cc1,3
2,N[C@H](CO)Cc1nc(-c2ccc(Oc3ccc(-c4cc[nH]n4)cn3)cc2)no1,1.8
3,N[C@H](CCO)Cn1nnc(-c2ccc(Oc3ncc(Cl)cc3F)cc2)n1,2.4
4,N[C@@H](CC(=O)O)Cn1nnc(-c2ccc(Oc3ncc(Cl)cc3F)cc2)n1,0.5

# Further lines, results first:
row,logD,Compound
1,2.3,N[C@H](CO)Cn1nnc(-c2ccc(Oc3ncc(Cl)cc3F)cc2)n1
2,2.3,N[C@@H](CO)Cn1nnc(-c2ccc(Oc3ncc(Cl)cc3F)cc2)n1

# System: not listed separately
# Test: physchem
# Settings: buffer, pH 6.8
row,Compound,solubility [µM]
1,Cc1ccc(Oc2ccc(-c3nnn(CCN)n3)cc2)cc1,30
2,N[C@H](CO)Cc1nc(-c2ccc(Oc3ccc(-c4cc[nH]n4)cn3)cc2)no1,870
3,N[C@H](CCO)Cn1nnc(-c2ccc(Oc3ncc(Cl)cc3F)cc2)n1,580
4,N[C@@H](CC(=O)O)Cn1nnc(-c2ccc(Oc3ncc(Cl)cc3F)cc2)n1,620

# Next, values leading:
row,solubility [µM],Compound
1,> 1000,N[C@H](CO)Cn1nnc(-c2ccc(Oc3ncc(Cl)cc3F)cc2)n1
2,520,N[C@@H](CO)Cn1nnc(-c2ccc(Oc3ncc(Cl)cc3F)cc2)n1

# System: not listed separately
# Test: in vitro
# Settings: dog, MDCK
row,Compound,Papp A→B [×10⁻⁶ cm/s]
1,Cc1ccc(Oc2ccc(-c3nnn(CCN)n3)cc2)cc1,34
2,N[C@H](CO)Cc1nc(-c2ccc(Oc3ccc(-c4cc[nH]n4)cn3)cc2)no1,9
3,N[C@H](CCO)Cn1nnc(-c2ccc(Oc3ncc(Cl)cc3F)cc2)n1,21
4,N[C@@H](CC(=O)O)Cn1nnc(-c2ccc(Oc3ncc(Cl)cc3F)cc2)n1,1.8

# Continued, values first:
row,Papp A→B [×10⁻⁶ cm/s],Compound
1,23,N[C@@H](CCO)Cn1nnc(-c2ccc(Oc3ncc(Cl)cc3F)cc2)n1
2,28,N[C@H](CO)Cn1nnc(-c2ccc(Oc3ncc(Cl)cc3F)cc2)n1
3,25,N[C@@H](CO)Cn1nnc(-c2ccc(Oc3ncc(Cl)cc3F)cc2)n1

# System: not listed separately
# Test: in vitro
# Settings: mouse, liver microsomes
row,Compound,microsomal CLint [µL/min/mg]
1,Cc1ccc(Oc2ccc(-c3nnn(CCN)n3)cc2)cc1,246
2,N[C@H](CO)Cc1nc(-c2ccc(Oc3ccc(-c4cc[nH]n4)cn3)cc2)no1,29
3,N[C@H](CCO)Cn1nnc(-c2ccc(Oc3ncc(Cl)cc3F)cc2)n1,145
4,N[C@@H](CC(=O)O)Cn1nnc(-c2ccc(Oc3ncc(Cl)cc3F)cc2)n1,< 25

# Now from value to compound:
row,microsomal CLint [µL/min/mg],Compound
1,< 25,N[C@H](CO)Cn1nnc(-c2ccc(Oc3ncc(Cl)cc3F)cc2)n1
2,< 25,N[C@@H](CO)Cn1nnc(-c2ccc(Oc3ncc(Cl)cc3F)cc2)n1

# System: not listed separately
# Test: in vitro
# Settings: rat, liver microsomes
row,Compound,microsomal CLint [µL/min/mg]
1,Cc1ccc(Oc2ccc(-c3nnn(CCN)n3)cc2)cc1,266
2,N[C@H](CO)Cc1nc(-c2ccc(Oc3ccc(-c4cc[nH]n4)cn3)cc2)no1,< 25
3,N[C@H](CCO)Cn1nnc(-c2ccc(Oc3ncc(Cl)cc3F)cc2)n1,94
4,N[C@@H](CC(=O)O)Cn1nnc(-c2ccc(Oc3ncc(Cl)cc3F)cc2)n1,< 25

# Further lines, results first:
row,microsomal CLint [µL/min/mg],Compound
1,< 25,N[C@H](CO)Cn1nnc(-c2ccc(Oc3ncc(Cl)cc3F)cc2)n1
2,< 25,N[C@@H](CO)Cn1nnc(-c2ccc(Oc3ncc(Cl)cc3F)cc2)n1

# System: not listed separately
# Test: in vitro
# Settings: human, liver microsomes
row,Compound,microsomal CLint [µL/min/mg]
1,Cc1ccc(Oc2ccc(-c3nnn(CCN)n3)cc2)cc1,396
2,N[C@H](CO)Cc1nc(-c2ccc(Oc3ccc(-c4cc[nH]n4)cn3)cc2)no1,< 25
3,N[C@H](CCO)Cn1nnc(-c2ccc(Oc3ncc(Cl)cc3F)cc2)n1,40
4,N[C@@H](CC(=O)O)Cn1nnc(-c2ccc(Oc3ncc(Cl)cc3F)cc2)n1,< 25

# Second part, the compound after the results:
row,microsomal CLint [µL/min/mg],Compound
1,< 25,N[C@H](CO)Cn1nnc(-c2ccc(Oc3ncc(Cl)cc3F)cc2)n1
2,< 25,N[C@@H](CO)Cn1nnc(-c2ccc(Oc3ncc(Cl)cc3F)cc2)n1

# System: not listed separately
# Test: physchem
# Settings: not given
row,Compound,pKa
1,N[C@H](CO)Cn1nnc(-c2ccc(Oc3ncc(Cl)cc3F)cc2)n1,7.1
2,N[C@@H](CO)Cn1nnc(-c2ccc(Oc3ncc(Cl)cc3F)cc2)n1,7.1
